SMILES strings stand for the structures.

Common to all, as to type: cell-based
For test [1], the target named is EP4 subtype of the human PGE2 receptor (Homo sapiens, UniProt P35408). As to the kind of experiment: cAMP antagonism test on the human EP4 receptor (HTRF cAMP detection). As to conditions: selectivity towards hEP4, IC50 measured by cAMP antagonism test. In short, it runs like this: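 Cells expressing human EP4 preincubated 20 min at RT with compound (0.8 nM–16.5 μM), then stimulated with PGE2 (0.3 nM in 3× solution, with IBMX) 60 min at RT. After lysis, cAMP measured by HTRF competition (665/620 nm ratio); antagonism seen as rise in FRET signal.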
EP4 subtype of the human PGE2 receptor, sequence (P35408 whole entry): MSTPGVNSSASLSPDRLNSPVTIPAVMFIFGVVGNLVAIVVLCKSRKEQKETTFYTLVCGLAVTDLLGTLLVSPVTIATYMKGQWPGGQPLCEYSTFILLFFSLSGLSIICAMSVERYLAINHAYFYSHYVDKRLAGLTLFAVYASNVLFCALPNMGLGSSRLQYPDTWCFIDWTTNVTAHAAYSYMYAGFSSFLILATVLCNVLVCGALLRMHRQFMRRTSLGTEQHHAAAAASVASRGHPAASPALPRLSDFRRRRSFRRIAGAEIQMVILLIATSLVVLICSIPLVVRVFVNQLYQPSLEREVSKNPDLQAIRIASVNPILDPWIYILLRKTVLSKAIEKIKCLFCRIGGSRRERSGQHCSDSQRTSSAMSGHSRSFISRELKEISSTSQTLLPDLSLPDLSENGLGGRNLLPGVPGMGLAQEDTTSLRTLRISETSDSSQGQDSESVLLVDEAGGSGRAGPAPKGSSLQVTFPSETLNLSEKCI
(In general: In TR-FRET formats the signal depends on donor and acceptor labels being close together.)

Test [2] has as its target EP2 subtype of the human PGE2 receptor (Homo sapiens, UniProt P43116). As to the kind of experiment: cAMP antagonism test on the human EP2 receptor (HTRF cAMP detection). The settings on record: hEP2 receptor, read-out: Antagonism hEP2 IC50. In short, it runs like this:
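Cells expressing human EP2 preincubated 20 min at RT with compound (0.8 nM–16.5 μM), then stimulated 60 min with PGE2 (3× solution 1.5 nM) in PBS-IBMX. After 20 min lysis, cAMP measured by competitive HTRF with cAMP-d2 and Eu cryptate anti-cAMP antibody (665/620 nm ratio).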

The target in test [3] is T1, human PGD receptor (Homo sapiens, UniProt Q13258).
T1 sequence (Q13258 1-359): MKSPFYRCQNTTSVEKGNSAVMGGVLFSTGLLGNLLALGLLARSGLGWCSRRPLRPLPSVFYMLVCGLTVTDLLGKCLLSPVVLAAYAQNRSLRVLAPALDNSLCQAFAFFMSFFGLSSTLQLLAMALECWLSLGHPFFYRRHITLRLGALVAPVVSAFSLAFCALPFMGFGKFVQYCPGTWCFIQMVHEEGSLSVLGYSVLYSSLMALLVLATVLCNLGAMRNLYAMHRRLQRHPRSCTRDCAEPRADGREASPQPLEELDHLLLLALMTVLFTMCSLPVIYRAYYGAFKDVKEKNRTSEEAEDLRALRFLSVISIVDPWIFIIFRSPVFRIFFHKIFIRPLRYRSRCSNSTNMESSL
As to the kind of experiment: cAMP antagonism test on the human prostaglandin D receptor (HTRF cAMP detection). The settings on record: selectivity towards hDP, IC50 measured by cAMP antagonism test. In short, it runs like this:
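Cells pre-mixed with cAMP-d2 were preincubated with compound (0.8 nM–16.5 μM) for 20 min at RT, then stimulated with 3× PGD2 solution (6 nM, in PBS-IBMX) for 30 min at RT. After lysis (20 min), HTRF read at 665/620 nm; antagonism seen as rise in FRET ratio.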

EP2 subtype of the human PGE2 receptor, sequence (P43116 whole entry): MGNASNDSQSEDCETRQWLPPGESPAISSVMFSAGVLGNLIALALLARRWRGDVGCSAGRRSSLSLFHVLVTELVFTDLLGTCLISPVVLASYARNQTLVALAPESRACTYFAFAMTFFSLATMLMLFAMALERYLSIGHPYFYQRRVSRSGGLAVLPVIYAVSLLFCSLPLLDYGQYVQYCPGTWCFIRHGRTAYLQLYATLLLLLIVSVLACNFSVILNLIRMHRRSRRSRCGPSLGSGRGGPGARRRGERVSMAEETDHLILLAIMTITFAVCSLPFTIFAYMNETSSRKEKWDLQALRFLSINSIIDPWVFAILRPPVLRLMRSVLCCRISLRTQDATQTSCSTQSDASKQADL

In general, IC50 refers to the concentration that inhibits the measured activity by half. For `Cc1c(C(=O)NCCOC2CC2)ccc2nn(CC3CN(C(=O)c4ccc(OC(F)(F)F)cc4)C3)cc12` [Example 136, N-[2-(cyclopropyloxy)ethyl]-4-methyl-2-({1-[4-(trifluoromethoxy)benzoyl]azetidin-3-yl}methyl)-2H-indazol-5-carboxamide], the “Selectivity hEP2/hEP4” value in test [1] was “xxx (xxx > 100)”. Besides, in test [2], the IC50 is 6.59 nM. Moreover, the “Selectivity hEP2/hDP” value in test [3] is “xxx (xxx > 100)”.
`COCCNC(=O)c1ccc2nn(C[C@@H]3CCN(C(=O)c4ccc(S(F)(F)(F)(F)F)cc4)C3)cc2c1C` [Example 219, N-(2-methoxyethyl)-4-methyl-2-({(3R)-1-[4-(pentafluoro-λ^6-sulphanyl)benzoyl]-pyrrolidin-3-yl}methyl)-2H-indazol-5-carboxamide]: in test [1], the “Selectivity hEP2/hEP4” value is “xx (xx: 10-100)”. For the same molecule, the IC50 in test [2] came out at 273 nM. In test [3], the “Selectivity hEP2/hDP” value is on record as “xx (xx: 10-100)”.
Consider `COCCNC(=O)c1ccc2nn(CC3CCN(C(=O)c4ccc(-n5cnnc5)cc4)CC3)cc2c1C` [Example 52, N-(2-methoxyethyl)-4-methyl-2-((1-[4-(4H-1,2,4-triazol-4-yl)benzoyl]piperidin-4-yl}methyl)-2H-indazol-5-carboxamide], for which the “Selectivity hEP2/hEP4” value in test [1] is reported as “xx (xx: 10-100)”. In addition, in test [2], the IC50 worked out at 830 nM. Also, in test [3], the “Selectivity hEP2/hDP” value is “xx (xx: 10-100)”.
On to `Cc1c(C(=O)NCCN2CCOCC2)ccc2nn(CC3CN(C(=O)c4ccc(Cl)cc4)C3)cc12` [Example 128, 2-{[1-(4-chlorobenzoyl)azetidin-3-yl]methyl}-4-methyl-N-(2-morpholinoethyl)-2H-indazol-5-carboxamide], for which the “Selectivity hEP2/hEP4” value in test [1] is listed as “xx (xx: 10-100)”. Moreover, the IC50 in test [2] came to 471 nM. Also, in test [3], the “Selectivity hEP2/hDP” value was “xx (xx: 10-100)”.
As for `Cc1c(C(=O)NCC(F)(F)F)ccc2nn(CC3CCN(C(=O)c4ccc(SC(F)(F)F)cc4)CC3)cc12` [Example 288, 4-methyl-N-(2,2,2-trifluoroethyl)-2-[(1-{4-[(trifluoromethyl)sulphanyl]benzoyl}-piperidin-4-yl)methyl]-2H-indazol-5-carboxamide], in test [1], the “Selectivity hEP2/hEP4” value is given as “xxx (xxx > 100)”. In addition, the IC50 in test [2] was 40 nM. In addition, in test [3], the “Selectivity hEP2/hDP” value was “xxx (xxx > 100)”.
As for `COCCNC(=O)c1ccc2nn(CC3CCN(C(=O)c4ccc(-c5ccc(C#N)cc5C)cc4)CC3)cc2c1C` [Example 367, 2-({1-[(4′-cyano-2′-methylbiphenyl-4-yl)carbonyl]piperidin-4-yl}methyl)-N-(2-methoxyethyl)-4-methyl-2H-indazol-5-carboxamide], the “Selectivity hEP2/hEP4” value in test [1] is on record as “xxx (xxx > 100)”. For the same molecule, the IC50 in test [2] was determined as 5.84 nM. Further, in test [3], the “Selectivity hEP2/hDP” value was “xxx (xxx > 100)”.
Turning to `COc1ccc(-c2ccc(C(=O)N3CCC(Cn4cc5c(C)c(C(=O)NCC(F)(F)F)ccc5n4)CC3)cc2)c(C)c1` [Example 318, 2-({1-[(4′-methoxy-2′-methylbiphenyl-4-yl)carbonyl]piperidin-4-yl}methyl)-4-methyl-N-(2,2,2-trifluoroethyl)-2H-indazol-5-carboxamide], the “Selectivity hEP2/hEP4” value in test [1] is reported as “xxx (xxx > 100)”. Further, the IC50 in test [2] was determined as 26.3 nM. The “Selectivity hEP2/hDP” value in test [3] is reported as “xxx (xxx > 100)”.
Consider `Cc1c(C(=O)NCC2CCC2)ccc2nn(CC3CCN(C(=O)c4ccc(Oc5ccc(C(F)(F)F)cc5)cc4)CC3)cc12` [Example 403, N-(cyclobutylmethyl)-4-methyl-2-[(1-{4-[4-(trifluoromethyl)phenoxy]benzoyl}-piperidin-4-yl)methyl]-2H-indazol-5-carboxamide], for which the “Selectivity hEP2/hEP4” value in test [1] is “xxx (xxx > 100)”. In addition, in test [2], the IC50 came out at 9.59 nM. Further, the “Selectivity hEP2/hDP” value in test [3] was “xxx (xxx > 100)”.
`Cc1c(C(=O)NCC(F)(F)F)ccc2nn(CC3CCN(C(=O)c4ccc(Oc5ccc(Cl)cn5)cc4)CC3)cc12` [Example 311, 2-[(1-{4-[(5-chloropyridin-2-yl)oxy]benzoyl}piperidin-4-yl)methyl]-4-methyl-N-(2,2,2-trifluoroethyl)-2H-indazol-5-carboxamide]: the “Selectivity hEP2/hEP4” value in test [1] is on record as “xxx (xxx > 100)”. The IC50 in test [2] was found to be 84.1 nM. For the same molecule, the “Selectivity hEP2/hDP” value in test [3] is “xxx (xxx > 100)”.
For `Cc1cc2nn(CC3CN(C(=O)c4ccc(Cl)cc4)C3)cc2cc1C(=O)NCCOCC1CC1` [Example 198, 2-{[1-(4-chlorobenzoyl)azetidin-3-yl]methyl}-N-[2-(cyclopropylmethoxy)ethyl]-6-methyl-2H-indazol-5-carboxamide], in test [1], the “Selectivity hEP2/hEP4” value was “xxx (xxx > 100)”. The IC50 in test [2] is 153 nM. Further, the “Selectivity hEP2/hDP” value in test [3] is listed as “xxx (xxx > 100)”.
With `COCCNC(=O)c1ccc2nn(CC3CCN(C(=O)c4ccc(-c5ccc(C)cc5)cc4F)CC3)cc2c1C` [Example 44, 2-({1-[(3-fluoro-4′-methylbiphenyl-4-yl)carbonyl]piperidin-4-yl}methyl)-N-(2-methoxyethyl)-4-methyl-2H-indazol-5-carboxamide], the “Selectivity hEP2/hEP4” value in test [1] is on record as “xxx (xxx > 100)”. Also, the IC50 in test [2] was 3.85 nM. The “Selectivity hEP2/hDP” value in test [3] was “xxx (xxx > 100)”.
For `Cc1c(C(=O)NCC2CCCCO2)ccc2nn(CC3CCN(C(=O)c4ccc(Cl)cc4)CC3)cc12` (racemic) [Example 239, (+/−)-2-{[1-(4-chlorobenzoyl)piperidin-4-yl]methyl}-4-methyl-N-(3,4,5,6-tetrahydro-2H-pyran-2-ylmethyl)-2H-indazol-5-carboxamide], the “Selectivity hEP2/hEP4” value in test [1] is reported as “xxx (xxx > 100)”. Also, the IC50 in test [2] turned out to be 27 nM. The “Selectivity hEP2/hDP” value in test [3] is reported as “xxx (xxx > 100)”.
Turning to `COCCNC(=O)c1ccc2nn(CC3CCN(C(=O)c4ccc(Oc5ccc(F)cc5)cc4)CC3)cc2c1OC(F)F` [Example 226, 4-(difluoromethoxy)-2-({1-[4-(4-fluorophenoxy)benzoyl]piperidin-4-yl}methyl)-N-(2-methoxyethyl)-2H-indazol-5-carboxamide], the “Selectivity hEP2/hEP4” value in test [1] is recorded as “xxx (xxx > 100)”. Besides, the IC50 in test [2] is 11.9 nM. In addition, the “Selectivity hEP2/hDP” value in test [3] is “xxx (xxx > 100)”.
On to `Cc1cc2nn(CC3CN(C(=O)c4ccc(Cl)cc4)C3)cc2cc1C(=O)NCCSC(F)(F)F` [Example 189, 2-{[1-(4-chlorobenzoyl)azetidin-3-yl]methyl}-6-methyl-N-{2-[(trifluoromethyl)sulphanyl]ethyl}-2H-indazol-5-carboxamide], for which the “Selectivity hEP2/hEP4” value in test [1] is listed as “xxx (xxx > 100)”. Further, the IC50 in test [2] is 33.6 nM. For the same molecule, in test [3], the “Selectivity hEP2/hDP” value is given as “xxx (xxx > 100)”.
Turning to `COCCNC(=O)c1ccc2nn(CC3CCN(C(=O)c4ccc(C(F)F)cc4)CC3)cc2c1C` [Example 32, 2-({1-[4-(difluoro-methyl)benzoyl]-piperidin-4-yl}-methyl)-N-(2-methoxyethyl)-4-methyl-2H-indazol-5-carboxamide], the “Selectivity hEP2/hEP4” value in test [1] was “xxx (xxx > 100)”. Moreover, the IC50 in test [2] came out at 10.4 nM. The “Selectivity hEP2/hDP” value in test [3] is recorded as “xxx (xxx > 100)”.
As for `Cc1c(C(=O)NCCOCC2CC2)ccc2nn(CC3CCN(C(=O)c4ccc(-c5ccc(F)cc5)cc4)CC3)cc12` [Example 88, N-[2-(cyclopropyl-methoxy)ethyl]-2-({1-[(4′-fluorobiphenyl-4-yl)carbonyl]piperidin-4-yl}methyl)-4-methyl-2H-indazol-5-carboxamide], the “Selectivity hEP2/hEP4” value in test [1] was “xxx (xxx > 100)”. Further, the IC50 in test [2] was 16.2 nM. Also, the “Selectivity hEP2/hDP” value in test [3] is “xxx (xxx > 100)”.
Consider `Cc1c(C(=O)NCCOC(F)(F)F)ccc2nn(CC3CCN(C(=O)c4ccc(Oc5ccc(C(F)(F)F)cc5)cc4)CC3)cc12` [Example 110, 4-methyl-N-[2-(trifluoromethoxy)ethyl]-2-[(1-{4-[4-(trifluoro-methyl)phenoxy]-benzoyl}piperidin-4-yl)-methyl]-2H-indazol-5-carboxamide], for which the “Selectivity hEP2/hEP4” value in test [1] was “xxx (xxx > 100)”. Moreover, in test [2], the IC50 came out at 4.4 nM. Also, in test [3], the “Selectivity hEP2/hDP” value is “xxx (xxx > 100)”.
Consider `COCCNC(=O)c1ccc2nn(CC3CCN(C(=O)c4cccc(C(F)(F)F)c4)CC3)cc2c1C` [Example 26, N-(2-methoxyethyl)-4-methyl-2-({1-[3-(trifluoromethyl)-benzoyl]piperidin-4-yl}methyl)-2H-indazol-5-carboxamide], for which the “Selectivity hEP2/hEP4” value in test [1] is “xxx (xxx > 100)”. Moreover, in test [2], the IC50 turned out to be 24.2 nM. For the same molecule, in test [3], the “Selectivity hEP2/hDP” value was “xxx (xxx > 100)”.
Turning to `COCCNC(=O)c1ccc2nn(CC3CCN(C(=O)c4ccc(Oc5ccc(OC)cc5)cc4)CC3)cc2c1C` [Example 18, N-(2-methoxyethyl)-2-({1-[4-(4-methoxy-phenoxy)benzoyl]-piperidin-4-yl}-methyl)-4-methyl-2H-indazol-5-carboxamide], the “Selectivity hEP2/hEP4” value in test [1] is “xxx (xxx > 100)”. Besides, the IC50 in test [2] came out at 7.66 nM. For the same molecule, the “Selectivity hEP2/hDP” value in test [3] was “xxx (xxx > 100)”.

The values are drawn from patent publication US9062041B2 (Bayer Intellectual Property GmbH, priority 2011, dated 2015).
